Test [1] has as its system Pou5f1 transcription site (MCP-mNeonGreen nascent RNA). Put plainly: MCP-mNeonGreen nascent transcription at the endogenous Pou5f1 locus in mESCs (live-cell imaging). In kind it is cell-based, mouse. The note with it: for MCP-mNeonGreen exponential decay time: Pou5f1, mESCs, 10 μM flavopiridol, 10 μM triptolide or 1 μM JQ1, mean±S.D. The method, then: All the mESCs were cultured and maintained in +2i media with appropriate selection drugs on 0.1% gelatin-coated dishes, at 37° C. in a humidified 5% CO2 incubator. +2i media contain D-MEM (Thermo Fisher Scientific 10313021), 15% fetal bovine serum (Gemini Bio 100-500), 0.1 mM β-mercaptoethanol (Thermo Fisher Scientific 21985023), 2 mM L-alanyl-L-glutamine (Thermo Fisher Scientific 35050079), 1×MEM nonessential amino acids (Thermo Fisher Scientific 11140076), 1000 U/mL LIF (Millipore ESG1107), […] (Millipore 361559) and 1 μM PD0325901 (Axon Medichem 1408). OMG and NMG SNAP-Rpb1 cells were cultured with +2i media plus 3 μg/ml α-amanitin.
Before imaging, cells were seeded onto 8-chamber coverglass (LabTek, 155411) coated with 5 μg/ml laminin (BioLamina LN511), in −2i media (OMG) or +2i media (NMG) and appropriate drugs. For SiR staining, cells were labeled with media containing 0.3 μM SiR-BG for 10 mins, at 37° C., followed by three washes with new media.
Wide-Field Cell Imaging Experiments. Live cell imaging experiments (tdPCP-EGFP and MCP-mNeonGreen tracking). For time-lapse imaging, a z-stack of 11 frames at 1 frame/second was acquired, by stepping the sample along the z-axis using the nanopositioning stage (250 nm steps). The CCD data were analyzed using IDL 6.4 (ITTVIS). Maximum projection images were calculated for each stack, and the resulting 11 sec/frame movie was used to track the intensities of individual tdPCP-EGFP-tagged transcription sites. A particle tracking routine (Crocker and Grier, 1996) was used for finding the positions of the transcription site in each frame and linking them into a 2D trajectory. The intensity trace of tdPCP-EGFP at the transcription site was corrected for photo-bleaching using the time trace of tdPCP-EGFP in a nearby nuclear region. The auto-correlation function was calculated (for the tdPCP-EGFP fluctuation analysis), or the data were imported in Origin 8.5.0 (OriginLab) and the trace fitted to a single-exponential decay (for the transcription inhibition experiments).

The test system of test [2] is Pol II (SiR-Rpb1) at the CMV mini-gene transcription site. Nature of the test: SiR-Rpb1 (Pol II) dynamics at the CMV mini-gene after inhibitor addition (target-locking). The format is cell-based, human. To be noted: for SiR-Rpb1 exponential decay time (ii) individual target-locked transcription site traces: 10 μM flavopiridol or 10 μM triptolide, mean±S.D.; for SiR-Rpb1 exponential decay time (i) fit parameters of total signal from different transcription sites: after adding 10 μM flavopiridol or 10 μM triptolide, target-locking. The method, then:
To visualize Pol II, example implementations may express a SNAP-tagged Rpb1 Pol II subunit (SNAP-Rpb1). […] Importantly, the brightness and gradual SiR-Rpb1 photobleaching within these foci (see below) indicates multiple Pol II molecules accumulating at the mini-gene. Previously, it was unclear to what extent transcription is carried out by individual, solitary Pol II molecules, or whether it involves multiple Pol II molecules. When Pol II clustering occurs, as typically little information on genomic position and promoter activity is simultaneously available, it has been hard to establish whether and how this phenomenon relates to transcription. Our observations reveal that focal Pol II accumulation and transcription activity from a specific promoter at a specific genomic locus are spatially and temporally linked.
Regarding target-locking probes nanometer Pol II organization at the transcription site, motion blur and bleaching during scanning distorts the 3D images, limits the observation times and makes quantifying and tracking Pol II at the transcription site, with single-molecule sensitivity and higher spatio-temporal resolution, extremely difficult (FIGS. 11D, 11E). To eliminate scanning, example implementations may develop a target-locking system that obtains single-shot spatial information (FIG. 10A) and actively stabilizes the transcription site at the (common) excitation maximum/STED zero. With feedback loop speeds up to 30 fps, tdPCP-EGFP is locked within ˜30 nm root-mean-square (r.m.s.) from the desired set-point (FIGS. 4E, 4F, 11F). Target-locking at the excitation maximum provides the same total photon counts as scanning, but at orders-of-magnitude lower power, improving photostability. […]
Pol II closely follows the fate of nascent transcripts: SiR-Rpb1 accumulation gradually decreases after inhibitor addition (FIGS. 3B, 3C and 13H decay times 160-240 sec). […] The good agreement with decay rates measured optically further supports the notion that the accumulated SiR-Rpb1 signal reflects multiple elongating/terminating Pol IIs.
For active feedback control, example implementations may adopt a custom LabVIEW program, optimized for fast CCD acquisition (via, e.g., detection system 150), real-time image analysis and active microscope stabilization using nanopositioning equipment (e.g., platform 190). The images obtained from the Ixon3 897 detector (e.g., detection system 150) were analyzed on the fly by non-linear least-squares fitting of a 21×21 pixel ROI to a 2D Gaussian peak function implemented in LabVIEW. […] The coordinates returned by the 2D Gaussian peak fit were passed onto a PID controller that calculated the desired position correction that was commanded to the nanopositioning stage controller. […]

Test [3] deals with Pol II (SiR-Rpb1) at the Pou5f1 transcription site. Nature of the test: SiR-Rpb1 (Pol II) dynamics at Pou5f1 after drug addition (target-locking). In kind it is cell-based, mouse. The note with it: for Rpb1 exponential decay time from fits: Pou5f1, 10 μM flavopiridol, 10 μM triptolide or 1 μM JQ1; for Pol II signal at Pou5f1 upon transcription inhibition: paralleled by nascent RNA loss.
Protocol: The images obtained from the Ixon3 897 detector (e.g., detection system 150) were analyzed on the fly by non-linear least-squares fitting of a 21×21 pixel ROI to a 2D Gaussian peak function implemented in LabVIEW. Axial localization was achieved either though the degree of defocus or based on astigmatism. The coordinates returned by the 2D Gaussian peak fit were passed onto a PID controller that calculated the desired position correction that was commanded to the nanopositioning stage controller. The LabVIEW application ran at sustained speeds of up to 30 frames/second. Before imaging, cells were seeded onto 8-chamber coverglass (LabTek, 155411) coated with 5 μg/ml laminin (BioLamina LN511), in −2i media (OMG) or +2i media (NMG) and appropriate drugs. For SiR staining, cells were labeled with media containing 0.3 μM SiR-BG for 10 mins, at 37° C., followed by three washes with new media. OMG-1 or NMG mESCs (1×106) were transfected with 10 μg PB007-EF1α-Flag-SNAP-Rpb1 (αAmR) and 1 μg pCMV-hyPBase vectors using Lipofectamine 2000 (Invitrogen 11668019). Cells were subjected to 3 mg/ml α-amanitin 2 days post-transfection. Individual α-amanitin-resistant colonies were picked after ˜2 weeks, expanded, labeled with SiR-BG and imaged.

The test system of test [4] is Med22 foci at the Pou5f1 locus. Nature of the test: Med22 cluster signal at Pou5f1 upon inhibition (live-cell confocal/STED scans). To be noted: 1 μM JQ1 or 10 μM Flavopiridol. The format is cell-based, mouse.
Protocol: For real-time confocal and STED imaging, example implementations may program the wave generator to scan 2 μm×2 μm or 1 μm×1 μm xy areas in 0.8 sec or 0.2 sec respectively. 3D scanning was performed (via, e.g., detection system 150) by acquiring 5 xy scans while moving the stage by 0.5 μm in z between scans. TTL pulses corresponding to single-photon events from the APDs, together with the trigger pulses from the wave generator were detected using a field-programmable gate array (FPGA) data acquisition system (National Instruments, PCIe-7852R).

The values below come from patent US12031897B2, “Target-locking single-molecule nanoscopy” (Memorial Sloan Kettering Cancer Center, priority 2019, dated 2024).

Entries after “also recorded” stand apart in the source; their conditions may differ.

For `CC(C)[C@]12O[C@H]1[C@@H]1O[C@]13[C@]1(O[C@H]1C[C@H]1C4=C(CC[C@@]13C)C(=O)OC4)[C@@H]2O` [triptolide], the “MCP-mNeonGreen exponential decay time” value in test [1] came out at 378 ± 115 s. Moreover, in test [2], the “SiR-Rpb1 exponential decay time (ii) individual target-locked transcription site traces” value turned out to be 242 ± 148 s and the “SiR-Rpb1 exponential decay time (i) fit parameters of total signal from different transcription sites” value was found to be 239 ± 24 s. Also, in test [3], the “Rpb1 exponential decay time from fits” value was found to be 565 ± 109 s and the “Pol II signal at Pou5f1 upon transcription inhibition” value was “gradual Pol II signal loss”.

Consider `Cc1sc2c(c1C)C(c1ccc(Cl)cc1)=N[C@@H](CC(=O)OC(C)(C)C)c1nnc(C)n1-2` [JQ1], for which, in test [1] (Pou5f1), the “Hill equation n, relative MCP signal vs. [JQ1]” value worked out at 1.1±0.7. Also, the “MCP-mNeonGreen exponential decay time” value in test [1] came to 300 ± 136 s. Further, in test [1] (intermediate [A-485] or [JQ1]), the “response of individual Pou5f1 transcription sites at intermediate inhibitor concentration” value is “decays to a new finite plateau; also recorded: attenuated output, without completely shutting down”. Further, the Pou5f1 transcription activity entry in test [1] (upon JQ1 (FIG. 7A, 1 μM)) is “abruptly abolishes”. Moreover, the “Med22 signal at Pou5f1 upon inhibition” value in test [4] is reported as “drop close to noise-floor”. Further, the “Rpb1 exponential decay time from fits” value in test [3] came out at 310 ± 123 s.

For `CN1CC[C@H](c2c(O)cc(O)c3c(=O)cc(-c4ccccc4Cl)oc23)[C@H](O)C1` [flavopiridol], in test [1], the “MCP-mNeonGreen exponential decay time” value came to 378 ± 193 s. Also, the “Med22 signal at Pou5f1 upon inhibition” value in test [4] is on record as “not lost”. Also, in test [2], the “SiR-Rpb1 exponential decay time (ii) individual target-locked transcription site traces” value was 162 ± 71 s and the “SiR-Rpb1 exponential decay time (i) fit parameters of total signal from different transcription sites” value stood at 238 ± 49 s. In addition, in test [3], the “Rpb1 exponential decay time from fits” value worked out at 347 ± 104 s and the “Pol II signal at Pou5f1 upon transcription inhibition” value is reported as “gradual Pol II signal loss”.
